In the NIST ThermoML archive (doi:10.1021/je101012n):
Numbers after ± are expanded uncertainties.

Experiment: mn = molality of the nth substance listed, in mol/kg
Details: 101 kPa, Liquid, Alternating current cell with electrodes

O=S(=O)(O)O [sulfuric acid] + O
electrical conductivity [S/m]
Details	278.15 K	283.15 K	298.15 K	308.15 K	318.15 K	343.15 K	363.15 K
m1 = 9.4e-05	0.005493 ± 2.2e-05	0.006105 ± 2.4e-05	0.007827 ± 3.1e-05	0.008931 ± 3.6e-05	0.009949 ± 4e-05	0.01221 ± 5e-05	0.01367 ± 5e-05
m1 = 0.000936	0.05201 ± 0.00021	0.05749 ± 0.00023	0.07292 ± 0.00029	0.08174 ± 0.00033	0.09001 ± 0.00036	0.1026 ± 0.0004	0.1058 ± 0.00042
m1 = 0.00944	0.4321 ± 0.0017	0.4729 ± 0.0019	0.5772 ± 0.0023	0.6319 ± 0.0025	0.6759 ± 0.0027	0.7372 ± 0.0029	0.7698 ± 0.0031
m1 = 0.09223	3.12 ± 0.013	3.444 ± 0.014	4.13 ± 0.017	4.525 ± 0.018	4.885 ± 0.019	5.575 ± 0.022	6.159 ± 0.025
m1 = 0.4664	13.46 ± 0.054	14.5 ± 0.058	17.37 ± 0.07	19.34 ± 0.077	20.96 ± 0.084	25.62 ± 0.1	28.05 ± 0.11

[Cl-].[Na+] [sodium chloride] + O
electrical conductivity [S/m]
Details	278.15 K	283.15 K	298.15 K	308.15 K	318.15 K	343.15 K	363.15 K
m1 = 0.000104	0.0008271 ± 3.3e-06	0.0009431 ± 3.8e-06	0.001295 ± 5e-06	0.00161 ± 6e-06	0.001893 ± 8e-06	0.002693 ± 1.1e-05	0.003358 ± 1.3e-05
m1 = 0.00099	0.007531 ± 3e-05	0.008619 ± 3.4e-05	0.01224 ± 5e-05	0.01478 ± 6e-05	0.01747 ± 7e-05	0.02497 ± 0.0001	0.03126 ± 0.00013
m1 = 0.01	0.07349 ± 0.00029	0.08395 ± 0.00034	0.1185 ± 0.0005	0.1425 ± 0.0006	0.1694 ± 0.0007	0.2418 ± 0.001	0.3029 ± 0.0012
m1 = 0.1	0.6588 ± 0.0026	0.7505 ± 0.003	1.06 ± 0.0042	1.277 ± 0.0051	1.505 ± 0.006	2.148 ± 0.0086	2.691 ± 0.011
m1 = 0.5	2.948 ± 0.012	3.348 ± 0.013	4.652 ± 0.019	5.625 ± 0.022	6.624 ± 0.026	9.35 ± 0.037	11.68 ± 0.047
m1 = 1	5.444 ± 0.022	6.123 ± 0.025	8.43 ± 0.034	10.19 ± 0.041	11.94 ± 0.048	16.8 ± 0.067	20.94 ± 0.084
